# Experimental data published in US9687484B2, “Crystalline forms of an antidepressant compound” (DIPHARMA FRANCIS S.r.l., priority 2014, dated 2017).
# Structures can show the parent of a compound that is named as a salt.
# What was measured:
# [1] = XRPD comparison of crystalline form ω fresh and after storage; format: physicochemical; conditions: in the presence of moisture; FIGS. 6 and 7: 4° C. 24 hours, room temperature 24 hours, 25° C. and 60% RH 7 days
# Experimental: FIG. 6: Comparison of XRPD spectra of a sample of vortioxetine hydrobromide in crystalline form ω, as defined herein, freshly prepared (top line), after the same sample of vortioxetine hydrobromide in crystalline form ω has been kept at low temperature (4° C.) for 24 hours (middle line), and after the sample has been kept at room temperature for 24 hours (bottom line).
# FIG. 7: Comparison of XRPD spectra of a sample of vortioxetine hydrobromide in crystalline form ω, as defined herein, freshly prepared (bottom line), and the same sample analysed after 7 days, kept at a temperature of 25° C. and 60% relative humidity (RH) (top line).
# Crystalline form ω of vortioxetine hydrobromide was characterised by X-ray powder diffraction (XRPD). The X-ray powder diffraction (XRPD) spectra shown in FIGS. 3, 6 and 7 were collected with a PANalytical X'Pert PRO automatic powder diffractometer under the following operating conditions: CuKα radiation (λ=1.54 Å), scanning with a 2θ angle range of 3-40° with a step size of 0.017° for 12.7 sec.
# [2] = Physical and chemical stability of crystalline form ω under standard conditions; format: physicochemical; conditions: standard pressure, temperature and humidity conditions; FIGS. 6 and 7
# [3] = Hygroscopicity of crystalline form ω under standard storage conditions; format: physicochemical
# [4] = as said in WO 2014/044721; cited from earlier work
# [5] = greater relative humidity than the standard conditions; as described in WO 2007/144005, acknowledged by WO2014/044721; cited from earlier work
structure (smiles),measurement,setting,value
"Cc1ccc(Sc2ccccc2N2CCNCC2)c(C)c1 [crystalline form ω, hydrobromide salt of 1-[2-(2,4-dimethylphenylsulphanyl)phenyl]piperazine]",retention of crystalline form (XRPD),[1],keeps its crystalline form
same,physical and chemical stability,[2],stable from both the physical and the chemical standpoint
same,hygroscopicity,[3],not hygroscopic
"Cc1ccc(Sc2ccccc2N2CCNCC2)c(C)c1 [delta crystalline form, vortioxetine hydrobromide]",solubility in water,[4],high solubility in water
"Cc1ccc(Sc2ccccc2N2CCNCC2)c(C)c1 [gamma, vortioxetine hydrobromide]",hygroscopicity (tendency to absorb water),[5],significant hygroscopicity
